Test results as given in PMC11714165, “Bone‐Targeted Fluoropeptide Nanoparticle Inhibits NF‐κB Signaling to Treat Osteosarcoma and Tumor‐Induced Bone Destruction” (Advanced Science, 2024).
Residues, ends and D or L forms follow the SMILES beside them. *: point of attachment. X1 = O=C(OCCC(F)(F)C(F)(F)C(F)(F)C(F)(F)C(F)(F)C(F)(F)F)c1ccc(C=NN*)cc1; FITC = O=C1OC2(c3ccc(O)cc3Oc3cc(O)ccc32)c2ccc(NC(=S)*)cc21; NHNH2 = NN*

Assays:
[1] = system: 143B cells; assay: LDH release assay; assay type: cell-based, human; details: varying doses, 24 h, n = 3
Description: For the LDH assay, different concentrations of peptides were added to 143B cells as described above. The LDH released from the cells was measured by the manufacturer's protocol (Beyotime) after 24 h of incubation. Briefly, a new plate was used to transfer the solution of each well and treat it with lysis buffer at 37 °C for another 1 h. Each well was then incubated with the LDH working solution for 30 min. LDH activity was measured at 490 nm. Negative control cells were non‐treated, while positive control cells were treated with lysis buffer for 1 h directly. All samples were tested in triplicate.

[2] = system: mouse red blood cell; assay: Hemolysis of red blood cell suspension; assay type: cell-based; details: 2% mouse red blood cell suspension, different concentrations, 37 °C, 2 h, 1% Triton X‐100 positive control, n = 3
Description: Figure 3 Bioactivity of fluorous NBD nanoparticles. A) Schematic illustration of the NBD peptide inhibiting the NF‐κB pathway. B) WB analysis of p65, IκB, and phosphorylated p65 and IκB, respectively in BMM cells treated with RANKL for 2 h and then further incubated with different peptides (25 µM) for 24 h. C) Representative images of TRAP staining in BMM cells treated with PBS, NBD, NBD‐T, and NBD‐F respectively for osteoclast differentiation. The concentration of peptides was 25 µM. D) Quantification of the number of TRAP‐positive multinucleated osteoclasts (≥ 3 nuclei) based on the images in C). n = 5. Cell viability E) and LDH release F) of 143B cells exposed for 24 h to varying doses of NBD, NBD‐T, and NBD‐F, respectively. n = 3. G) Apoptosis analysis of 143B cells stained with FITC‐annexin V and propidium iodide (PI) for 24 h following treatment with NBD, NBD‐T, and NBD‐F, respectively. H) Images of 2% mouse red blood cell suspension incubated with different concentrations of NBD‐F or NBD‐T at 37 °C for 2 h. Triton X‐100 at 1% (Tx‐100) was used as a positive control. PBS was used as a negative control. […] Relative hemolysis was tested as [(As‐An)/(Ap‐An)] × 100%, where As, Ap, and An are the UV absorbances of the sample, positive control, and negative control, respectively (n = 3). *p < 0.05, **p < 0.01, ***p < 0.001, and ****p < 0.0001. […]

[3] = system: 143B cells; assay: Intracellular peptide delivery, confocal microscopy and flow cytometry; assay type: cell-based, human
Description: 10 µM of ^FINBD, ^FINBD‐F, or ^FINBD‐T was added to confocal dishes (diameter: 35 mm) when the 143B cells reached 90% confluence. After a 6 h incubation, the cells were rinsed with trypan blue and PBS, followed by imaging using a LSCM.
For flow cytometry analysis, the peptide ^FINBD, ^FINBD‐F, or ^FINBD‐T was added to 143B cells, following the aforementioned protocols. Subsequently, cells were digested using 0.25% trypsin, resuspended in PBS, and subjected to quantitative analysis of delivery efficiency using flow cytometry (CytoFLEX, BECKMAN, USA).
A control group consisted of ^FINBD‐F treated 143B cells in the absence of inhibitors (37 °C). Finally, LSCM was employed to observe internalized ^FINBD‐F in the treated cells.

Cellular uptake and endosomal escape ([3]; confocal, fluorescence dispersed throughout the cells after an hour of incubation)	Compound	LDH release [1]	Relative hemolysis [2]	Efficiency of intracellular delivery (fluorescence intensity) ([3]; 10 µM NBD, 6 h, confocal microscopy and flow cytometry, n = 3, compared with ^FINBD and ^FINBD‐T)	Internalization mechanism ([3]; 1 h pretreatment with EIPA 100 µM, MβCD 10 mM, GEN 700 µM, CPZ 20 µM or 4 °C, then 6 h peptide)
–	CC(C)C[C@H](NC(=O)[C@H](C)NC(=O)[C@@H](N)[C@@H](C)O)C(=O)N[C@@H](CC(=O)O)C(=O)N[C@@H](Cc1c[nH]c2ccccc12)C(=O)N[C@@H](CO)C(=O)N[C@@H](Cc1c[nH]c2ccccc12)C(=O)N[C@@H](CC(C)C)C(=O)N[C@@H](CCC(N)=O)C(=O)N[C@H](C(=O)N[C@@H](CCC(=O)O)C(=O)NN=Cc1ccc(C(=O)OCCC(F)(F)C(F)(F)C(F)(F)C(F)(F)C(F)(F)C(F)(F)F)cc1)[C@@H](C)O [NBD-F] (H-TALDWSWLQTE-X1)	concentration‐dependent	relatively low hemolytic rate	–	–
rapid and efficient	{FITC}-TALDWSWLQTE-NHNH2 [^FINBD-F, FITC‐labeled NBD peptide after fluorous tag modification]	–	–	noticeably improved the efficiency of intracellular delivery	mediated through multiple endocytosis pathways
